Reference: ChEMBL document CHEMBL5096185, “Structure-Guided Development of Small-Molecule PRC2 Inhibitors Targeting EZH2-EED Interaction” (J Med Chem, 2021)
Calls of active or inactive are those of the source. The rule behind the calls is not given here.

Tests used:
[1] = Inhibition of FITC-labeled EZH2 (40 to 63 residues) (unknown origin)-recombinant N-terminal 6His-SUMO tagged human EED (81 to 441 residues) expressed in Escherichia coli BL21 (DE3) cells protein-protein interaction incubated for 2 hrs by fluorescence polarization competition assay
Polycomb protein EED [2] = biological target: T1, Polycomb protein EED (Homo sapiens, UniProt O75530); assay: Binding affinity to recombinant N-terminal 6His-SUMO tagged human EED (81 to 441 residues) expressed in Escherichia coli BL21 (DE3) cells assessed as dissociation constant measured after 240 sec by SPR-based binding assay
Target sequence in this assay (O75530 whole entry, the tested form may be a part): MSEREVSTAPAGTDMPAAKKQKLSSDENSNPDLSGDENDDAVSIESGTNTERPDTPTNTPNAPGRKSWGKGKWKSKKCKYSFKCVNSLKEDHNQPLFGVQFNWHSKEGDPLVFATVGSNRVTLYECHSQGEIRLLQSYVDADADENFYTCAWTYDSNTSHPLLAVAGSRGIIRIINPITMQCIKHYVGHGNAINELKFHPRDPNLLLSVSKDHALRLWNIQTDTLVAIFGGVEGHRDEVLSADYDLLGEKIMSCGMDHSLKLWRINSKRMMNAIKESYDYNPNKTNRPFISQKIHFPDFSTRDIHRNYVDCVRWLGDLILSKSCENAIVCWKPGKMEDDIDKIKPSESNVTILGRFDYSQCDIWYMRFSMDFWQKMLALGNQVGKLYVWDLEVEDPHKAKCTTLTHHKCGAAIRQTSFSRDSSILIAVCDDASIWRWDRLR

Polycomb protein EED [3] = biological target: T1, Polycomb protein EED; assay: Binding affinity to recombinant N-terminal 6His-SUMO tagged human EED (81 to 441 residues) expressed in Escherichia coli BL21 (DE3) cells assessed as binding constant (Kon) measured after 120 sec by SPR-based binding assay
Target sequence in this assay (O75530 2-441 limits assumed): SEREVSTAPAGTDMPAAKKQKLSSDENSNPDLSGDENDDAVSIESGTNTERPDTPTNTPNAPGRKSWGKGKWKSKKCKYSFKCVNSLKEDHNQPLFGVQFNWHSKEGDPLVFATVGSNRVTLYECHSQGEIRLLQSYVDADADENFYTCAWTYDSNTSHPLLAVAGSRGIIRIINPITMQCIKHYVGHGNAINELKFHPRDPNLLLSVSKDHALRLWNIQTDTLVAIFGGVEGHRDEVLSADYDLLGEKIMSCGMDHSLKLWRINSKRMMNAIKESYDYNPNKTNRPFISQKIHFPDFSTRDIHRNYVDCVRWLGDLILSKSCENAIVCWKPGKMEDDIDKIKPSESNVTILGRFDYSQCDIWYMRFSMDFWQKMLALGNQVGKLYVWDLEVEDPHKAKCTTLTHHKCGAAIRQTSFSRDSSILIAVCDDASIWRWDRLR

Polycomb protein EED [4] = biological target: T1, Polycomb protein EED; assay: Binding affinity to recombinant N-terminal 6His-SUMO tagged human EED (81 to 441 residues) expressed in Escherichia coli BL21 (DE3) cells assessed as binding constant (Koff) measured after 120 sec by SPR-based binding assay
Target sequence in this assay (O75530 2-441 limits assumed): as above

Homo sapiens = species on record: Homo sapiens; assay: Binding affinity to EZH2 (39 to 68 residues) (unknown origin)/recombinant N-terminal 6His-SUMO tagged human EED (81 to 441 residues) expressed in Escherichia coli BL21 (DE3) cells assessed as T1rho signal recovery at 50 to 100 uM by NMR-based binding assay; details: dose 50-100 µM
Pfeiffer [5] = assay: Inhibition of PRC2 in human Pfeiffer cells assessed as reduction in EZH2 protein level measured after 72 hrs by Western blot analysis; type: cell-based; details: dose 0.6-10 µM, DDE = dose-dependent effect
Pfeiffer [6] = assay: Inhibition of PRC2 in human Pfeiffer cells assessed as reduction in EED protein level measured after 72 hrs by Western blot analysis; type: cell-based; details: dose 0.6-10 µM, DDE = dose-dependent effect
Pfeiffer [7] = assay: Inhibition of PRC2 in human Pfeiffer cells assessed as reduction in SUZ12 protein level measured after 72 hrs by Western blot analysis; type: cell-based; details: dose 0.6-10 µM, DDE = dose-dependent effect
Pfeiffer [8] = assay: Inhibition of PRC2 in human Pfeiffer cells assessed as reduction in H3K27me3 level measured after 72 hrs by Western blot analysis; type: cell-based; details: dose 0.6-10 µM, DDE = dose-dependent effect
Pfeiffer [9] = assay: Antiproliferative activity against human Pfeiffer cells assessed as inhibition of cell growth incubated for 72 hrs by CellTiter-Glo assay; type: functional, cell-based
KARPAS-422 = assay: Antiproliferative activity against human KARPAS-422 cells assessed as inhibition of cell growth incubated for 72 hrs by CellTiter-Glo assay; type: functional, cell-based; details: KARPAS-422, 72 h
SUD4 [10] = assay: Antiproliferative activity against human SU-DHL-4 cells assessed as inhibition of cell growth incubated for 72 hrs by CellTiter-Glo assay; type: functional, cell-based; details: SU-DHL-4, 72 h
DB = assay: Antiproliferative activity against human DB cells assessed as inhibition of cell growth incubated for 72 hrs by CellTiter-Glo assay; type: functional, cell-based
Pfeiffer [11] = assay: Induction of cell cycle arrest in human Pfeiffer cells assessed as accumulation of cells in G0/G1 phase at 5 uM incubated for 2 days by PI/RNase staining based analysis (reference value: 52.3%); type: functional; details: time 2 day
SUD4 [12] = assay: Induction of cell cycle arrest in human SU-DHL-4 cells assessed as accumulation of cells in G0/G1 phase at 5 uM incubated for 3 days by PI/RNase staining based analysis (reference value: 62.2 %); type: functional; details: time 3 day
Pfeiffer [13] = assay: Induction of cell cycle arrest in human Pfeiffer cells assessed as decrease of cells in G2/M phase at 5 uM incubated for 2 days by PI/RNase staining based analysis (reference value: 14.9 %); type: functional; parameters: scale not given: the % may be the effect or the level left; details: time 2 day
Pfeiffer [14] = assay: Induction of cell cycle arrest in human Pfeiffer cells assessed as decrease of cells in S phase at 5 uM incubated for 2 days by PI/RNase staining based analysis (reference value: 32.8 %); type: functional; parameters: scale not given: the % may be the effect or the level left; details: time 2 day
SUD4 [15] = assay: Induction of cell cycle arrest in human SU-DHL-4 cells assessed as decrease of cells in G2/M phase at 5 uM incubated for 3 days by PI/RNase staining based analysis (reference value: 8.6 %); type: functional; parameters: scale not given: the % may be the effect or the level left; details: time 3 day
SUD4 [16] = assay: Induction of cell cycle arrest in human SU-DHL-4 cells assessed as decrease of cells in G2/M phase at 5 uM incubated for 3 days by PI/RNase staining based analysis (reference value: 29.2 %); type: functional; parameters: scale not given: the % may be the effect or the level left; details: time 3 day

SMILES: COc1ccc(CNc2ccc(Nc3nc4ccccc4n3Cc3ccc(F)cc3)cc2)cc1
- IC50 [1]: 33.8 µM

SMILES: COc1ccc(CCNCCCNc2nc3ccccc3n2Cc2ccc(F)cc2)cc1
- IC50 [1]: 464 µM

SMILES: COc1ccc(CCNCCNc2nc3ccccc3n2Cc2ccc(F)cc2)cc1
- IC50 [1]: 11.6 µM

SMILES: COc1ccc(CCN2CCC(Nc3nc4ccccc4n3Cc3ccc(F)cc3[N+](=O)[O-])CC2)cc1
- IC50 [1]: 80.1 µM

SMILES: COc1ccc(CCN2CCC(Nc3nc4ccccc4n3Cc3ccccc3)CC2)cc1
- IC50 [1]: 131 µM

SMILES: COc1ccc(CCN2CC[C@H](Nc3nc4ccccc4n3Cc3ccc(F)cc3)C2)cc1
- IC50 [1]: 4.56 µM

SMILES: COc1ccc(CCN2CCC(Nc3nc4ccc(N)cc4n3Cc3ccc(F)cc3)CC2)cc1
- IC50 [1]: 64.7 µM

SMILES: COc1ccc(CCN2CCC(Nc3nc4c(N)cccc4n3Cc3ccc(F)cc3)CC2)cc1
- IC50 [1]: 48.6 µM

SMILES: COc1ccc(CCN2CCC(Nc3nc4ccccc4n3Cc3ccc(N)cc3)CC2)cc1
- IC50 [1]: 221 µM

SMILES: COc1ccc(CCN2CCC(Nc3nc4ccccc4n3Cc3ccc(F)cc3)CC2)cc1 [ASTEMIZOLE]
- IC50 [1]: 74.2 µM

SMILES: Cc1ccc(CCN2CCC(Nc3nc4ccccc4n3Cc3ccc(F)cc3)CC2)cc1
- IC50 [1]: 87.6 µM

SMILES: O=[N+]([O-])c1cccc(CCN2CCC(Nc3nc4ccccc4n3Cc3ccc(F)cc3)CC2)c1
- IC50 [1]: 341 µM

SMILES: COc1ccc(CNc2ccc(Nc3nc4ccccc4n3Cc3ccc(F)cc3)cn2)cc1
- IC50 [1]: 32.5 µM

SMILES: COc1ccc(CCN2CCC(Nc3nc4cccc(N)c4n3Cc3ccc(F)cc3)CC2)cc1
- IC50 [1]: 73.8 µM

SMILES: COc1ccc(CN[C@H]2CC[C@H](Nc3nc4ccccc4n3Cc3ccc(F)cc3)CC2)cc1
- IC50 [1]: 78.7 µM

SMILES: COc1ccc(CCN2CCC(Nc3nc4ccccc4n3Cc3ccc(C)cc3)CC2)cc1
- IC50 [1]: 153 µM

SMILES: COc1ccc(CCN2CCC(Nc3nc4ccccc4n3Cc3ccc(C(F)(F)F)cc3)CC2)cc1
- IC50 [1]: 60.8 µM

SMILES: COc1ccc(CCN2CCC(Nc3nc4cc(N)ccc4n3Cc3ccc(F)cc3)CC2)cc1
- IC50 [1]: 63.6 µM

SMILES: COc1ccc(CCN2CCC(Nc3nc4ccccc4n3Cc3ccc(F)cc3)C2)cc1 (centres undefined)
- Kd (Polycomb protein EED [2]): 4.56 µM
- K (Polycomb protein EED [3]): 4500 M⁻¹ s⁻¹
- K (Polycomb protein EED [4]): 0.0205 s⁻¹
- Activity (Homo sapiens): Active
- inhibition (Pfeiffer [5]): Dde
- inhibition (Pfeiffer [6]): Dde
- inhibition (Pfeiffer [7]): Dde
- inhibition (Pfeiffer [8]): Dde
- IC50 (Pfeiffer [9]): 3.77 µM
- IC50 (KARPAS-422): 5.97 µM
- IC50 (SUD4 [10]): 5.87 µM
- IC50 (DB): 9.62 µM
- Activity (Pfeiffer [11]): 76.2%
- Activity (SUD4 [12]): 84%
- Activity (Pfeiffer [13]): 6.2%
- Activity (Pfeiffer [14]): 17.6%
- Activity (SUD4 [15]): 0%
- Activity (SUD4 [16]): 16%

SMILES: Oc1ccc(CCN2CCC(Nc3nc4ccccc4n3Cc3ccc(F)cc3)CC2)cc1 [DESMETHEYLASTEMIZOLE]
- IC50 [1]: 190 µM

SMILES: COc1ccc(CN[C@H]2CC[C@@H](Nc3nc4ccccc4n3Cc3ccc(F)cc3)CC2)cc1
- IC50 [1]: > 500 µM

SMILES: COc1ccc(CCN2CC(Nc3nc4ccccc4n3Cc3ccc(F)cc3)C2)cc1
- IC50 [1]: 21.5 µM

SMILES: COc1ccc(CCN2CCC(Nc3nc4ccccc4n3Cc3ccc(F)c(F)c3)CC2)cc1
- IC50 [1]: 56.5 µM

SMILES: Oc1cccc(CCN2CCC(Nc3nc4ccccc4n3Cc3ccc(F)cc3)CC2)c1
- IC50 [1]: 61.5 µM

SMILES: Oc1ccccc1CCN1CCC(Nc2nc3ccccc3n2Cc2ccc(F)cc2)CC1
- IC50 [1]: 175 µM

SMILES: COc1ccc(CCN2CCC(Nc3nc4ccccc4n3Cc3ccc([N+](=O)[O-])cc3)CC2)cc1
- IC50 [1]: 66.3 µM

SMILES: COc1ccc(CCN2CCC(Nc3nc4ccccc4n3Cc3ccc(F)c([N+](=O)[O-])c3)CC2)cc1
- IC50 [1]: 61.6 µM
